Columns and labels:
histamine-induced asthma = assay: Antiasthmatic effect on histamine-induced asthma in guinea pigs (latency period); assay type: in vivo; conditions: X±s, n = 5; for Post-administration latency period: 1 mg/kg oral gavage, sixty minutes after administration, histamine hydrochloride spray, no asthma within 8 minutes counted as 8 minutes; for Pre-administration latency period: baseline before dosing, histamine hydrochloride spray 0.8 mg/mL for 40 seconds
Method: The guinea pigs were placed in a polymethyl methacrylate bell jar and a histamine hydrochloride solution was sprayed ultrasonically (0.8 mg/mL) for 40 seconds. The time point at which the guinea pigs developed asthma was recorded. The time of convulsion and fall was taken as the latency period. Guinea pigs with a latency period exceeding 180 seconds were not selected. […] The guinea pigs were administered by oral gavage at a dose of 2 mL/kg·bw. Sixty minutes after the administration, the guinea pigs were placed in bell jars, and histamine hydrochloride solution was sprayed under the same conditions as in the previous selection. The latency period for the onset of asthma was recorded. […] The results were processed statistically.

[1] = tested on: isolated ileal smooth muscle; assay: Muscle tone of isolated ileal smooth muscle of guinea pigs, compound alone; conditions: Table 3, no histamine, X±s, n = 8; for Smooth muscle tone (g) After administration: 5 minutes after adding the drug; for Smooth muscle tone (g) Before administration: before adding the drug; for Antispasmodic percentage (%): relative to tone before adding compound, 5 min
Method: (§1) The guinea pig was knocked unconscious with a wooden stick, and the abdomen was immediately dissected to separate the ileum about 15 cm in length. The contents of the intestinal segment were flushed with Tyrode's solution and placed in Tyrode's solution at a constant temperature of 37°C for later use, and oxygen was supplied simultaneously. The experimental intestinal tract (1 cm in length) was cut and placed into 20 ml of Tyrode's solution at a constant temperature of 37°C with a continuous oxygen supply. One end of the intestine was fixed on the ventilation hook and the other end was connected to the muscle tone transducer and led to the computer interface. The muscle tone value of the ileal smooth muscle was recorded with a BL system. The experiment was carried out after the intestinal segment contraction became stable.
After the ileum contraction curve stabilized, the tone values before adding the drug were recorded, then the drug or DMSO was added, and the average tone value of the ileum contraction curve at that point was recorded 5 minutes later. The operation was repeated 8 times. The antispasmodic percentage was calculated according to the following formula. Antispasmodic percentage =; (Tone value before adding subject compound−Tone value after adding subject compound)/(Tone value before adding subject compound) × 100% [formula]

[2] = Muscle tone of isolated ileal smooth muscle of guinea pigs contracted with histamine; conditions: Table 4; 3 minutes after adding 0.05 mL compound at maximum histamine contraction; x±s, n = 8
Method: as §1
(§2) After the ileal peristalsis curve stabilized, the tone values before adding the compound were recorded, and then 0.05 mL of histamine was added. […] The operation was repeated 8 times. The antispasmodic percentage was calculated using the following equation. Antispasmodic percentage; = (Tone value after adding histamine−Tone value after adding subject compound)/(Tone value after adding histamine) × 100% [formula]

histamine = assay: as above; conditions: Table 4, x±s, n = 8; for Smooth muscle tone (g) After addition of histamine: after 0.05 mL of histamine, before compound; for Smooth muscle tone (g) Before administration: before histamine and compound; for Antispasmodic percentage (%): relative to tone after adding histamine, 3 min
Method: as §1, §2

For `O=P(O)(O)OCN1CCC(=C2c3ccc(Cl)cc3CCc3cccnc32)CC1` [Compound III-1], the “Post-administration latency period” value (histamine-induced asthma) was 388.39 ± 53.23 s, the “Pre-administration latency period” value (histamine-induced asthma) was 99.34 ± 49.57 s and the “Smooth muscle tone (g) After administration” value [1] was 1.10 ± 0.22 g. The “Smooth muscle tone (g) Before administration” value [1] was 1.74 ± 0.19 g, the “Antispasmodic percentage (%)” value [1] was 36.78±18.11% and the “Smooth muscle tone (g) After administration” value [2] was 1.12 ± 0.25 g. The “Smooth muscle tone (g) After addition of histamine” value (“Smooth muscle tone … of histamine” for short) (histamine) was 3.44 ± 1.10 g, the “Smooth muscle tone (g) Before administration” value (histamine) was 1.81 ± 0.19 g and the “Antispasmodic percentage (%)” value (histamine) was 67.44±15.23%.

With `O=P(O)(O)OCN1CCC(=C2c3ccc(F)cc3CCc3cccnc32)CC1` [Compound III-2] the “Post-administration latency period” value (histamine-induced asthma) was 367.77 ± 50.21 s, the “Pre-administration latency period” value (histamine-induced asthma) was 98.81 ± 50.32 s and the “Smooth muscle tone (g) After administration” value [1] was 1.15 ± 0.20 g. The “Smooth muscle tone (g) Before administration” value [1] was 1.72 ± 0.23 g, the “Antispasmodic percentage (%)” value [1] was 33.14±15.19% and the “Smooth muscle tone (g) After administration” value [2] was 1.10 ± 0.19 g. For the same compound, the “Smooth muscle tone … of histamine” value (histamine) was 3.40 ± 0.99 g, the “Smooth muscle tone (g) Before administration” value (histamine) was 1.75 ± 0.16 g and the “Antispasmodic percentage (%)” value (histamine) was 67.65±17.99%.

In the case of `O=P(O)(O)OCN1CCC(=C2c3ccc(Br)cc3CCc3cccnc32)CC1` [Compound III-3], the “Antispasmodic percentage (%)” value [1] is reported as 29.82±18.20%, the “Smooth muscle tone … of histamine” value (histamine) is reported as 3.50 ± 1.19 g and the “Antispasmodic percentage (%)” value (histamine) is reported as 66.28±16.30%.

For `O=P(O)(O)OCCN1CCC(=C2c3ccc(Cl)cc3CCc3cccnc32)CC1` [Compound III-4], the “Post-administration latency period” value (histamine-induced asthma) was 366.40 ± 50.23 s, the “Pre-administration latency period” value (histamine-induced asthma) was 97.99 ± 50.18 s and the “Smooth muscle tone (g) After administration” value [1] was 1.17 ± 0.21 g. For the same compound, the “Smooth muscle tone (g) Before administration” value [1] was 1.70 ± 0.20 g, the “Antispasmodic percentage (%)” value [1] was 31.17±20.11% and the “Smooth muscle tone (g) After administration” value [2] was 1.21 ± 0.20 g. For the same compound, the “Smooth muscle tone … of histamine” value (histamine) was 3.48 ± 0.98 g, the “Smooth muscle tone (g) Before administration” value (histamine) was 1.75 ± 0.18 g and the “Antispasmodic percentage (%)” value (histamine) was 65.23±19.91%.

For `O=P(O)(O)OCCN1CCC(=C2c3ccc(F)cc3CCc3cccnc32)CC1` [Compound III-5], the “Post-administration latency period” value (histamine-induced asthma) was 371.19 ± 44.59 s, the “Pre-administration latency period” value (histamine-induced asthma) was 100.10 ± 43.29 s and the “Smooth muscle tone (g) After administration” value [1] was 1.18 ± 0.22 g. The “Smooth muscle tone (g) Before administration” value [1] was 1.73 ± 0.21 g, the “Antispasmodic percentage (%)” value [1] was 31.79±16.94% and the “Smooth muscle tone (g) After administration” value [2] was 1.17 ± 0.23 g. The “Smooth muscle tone … of histamine” value (histamine) was 3.40 ± 0.83 g, the “Smooth muscle tone (g) Before administration” value (histamine) was 1.79 ± 0.20 g and the “Antispasmodic percentage (%)” value (histamine) was 65.58±20.01%.

For `O=P(O)(O)OCCN1CCC(=C2c3ccc(Br)cc3CCc3cccnc32)CC1` [Compound III-6], the “Post-administration latency period” value (histamine-induced asthma) was 373.29 ± 50.22 s, the “Pre-administration latency period” value (histamine-induced asthma) was 95.26 ± 48.88 s and the “Smooth muscle tone (g) After administration” value [1] was 1.16 ± 0.27 g. For the same compound, the “Smooth muscle tone (g) Before administration” value [1] was 1.72 ± 0.20 g, the “Antispasmodic percentage (%)” value [1] was 32.56±17.27% and the “Smooth muscle tone (g) After administration” value [2] was 1.20 ± 0.20 g. For the same compound, the “Smooth muscle tone … of histamine” value (histamine) was 3.47 ± 0.90 g, the “Smooth muscle tone (g) Before administration” value (histamine) was 1.83 ± 0.18 g and the “Antispasmodic percentage (%)” value (histamine) was 65.42±17.83%.

In the case of `O=P(O)(O)OCCCN1CCC(=C2c3ccc(F)cc3CCc3cccnc32)CC1` [Compound III-8], the “Smooth muscle tone (g) After administration” value [1] is reported as 1.14 ± 0.23 g, the “Antispasmodic percentage (%)” value [1] is reported as 33.72±19.01% and the “Smooth muscle tone (g) After administration” value [2] is reported as 1.16 ± 0.25 g. For the same compound, the “Antispasmodic percentage (%)” value (histamine) was 66.47±18.83%.

With `O=P(O)(O)OCCCN1CCC(=C2c3ccc(Br)cc3CCc3cccnc32)CC1` [Compound III-9] the “Post-administration latency period” value (histamine-induced asthma) was 362.84 ± 53.77 s, the “Smooth muscle tone (g) After administration” value [1] was 1.18 ± 0.25 g and the “Antispasmodic percentage (%)” value [1] was 30.59±20.02%. The “Smooth muscle tone (g) After administration” value [2] was 1.14 ± 0.26 g and the “Antispasmodic percentage (%)” value (histamine) was 67.33±19.34%.

In the case of `O=P(O)(O)OCCCCN1CCC(=C2c3ccc(F)cc3CCc3cccnc32)CC1` [Compound III-11], the “Post-administration latency period” value (histamine-induced asthma) is reported as 373.33 ± 50.81 s, the “Smooth muscle tone (g) After administration” value [1] is reported as 1.17 ± 0.22 g and the “Smooth muscle tone (g) After administration” value [2] is reported as 1.16 ± 0.20 g. The “Antispasmodic percentage (%)” value (histamine) was 66.37±17.33%.
